PMC6150237, “Study of Absorption Characteristics of the Total Saponins from Radix Ilicis Pubescentis in an In Situ Single-Pass Intestinal Perfusion (SPIP) Rat Model by Using Ultra Performance Liquid Chromatography (UPLC)” (Molecules : A Journal of Synthetic Chemistry and Natural …, 2017)
Values joined by “and” are separate entries in the source; they are usually repeats but may differ in a detail not shown here. Identical values can stand only once. “Also recorded” adds a separate entry of the source.

Assays:
[1] = test system: rat small intestine (duodenum, jejunum, ileum); test: In situ single-pass intestinal perfusion (SPIP), saponins administrated in MDQ-TS form; format: in vivo
Description: (§1) MDQ-TS perfusion samples at low, middle, and high concentration levels of 1.25, 2.5, and 5.0 mg·mL^−1 were prepared by separately dissolving MDQ-TS in the minimum amount of DMSO and diluted with K-R buffer solution. The amount of DMSO was 0.5% in the final perfusion solutions. C1, C2, C3, C4, DC1, and DC2 perfusion samples with the concentration equivalent to the amount contained in 2.5 mg·mL^−1 of MDQ-TS were individually prepared in the same way. Verapamil, amantadine and EDTA were directly dissolved in the MDQ-TS perfusate with terminal concentrations of 200 μmol·L^−1, 2.5 mmol·L^−1, and 2.5 mmol·L^−1, accordingly, and used for investigating the mechanisms involved for absorption.
(§2) In situ single-pass intestinal perfusion (SPIP) studies were performed using an experimental design adapted from the literature with some modifications. Briefly, male Sprague-Dawley rats weighing 180–220 g were acclimatized for at least one week before the experiment, and fasted for 18 h with free access to water before the perfusion experiment. Rats were anesthetized with an intraperitoneal injection of urethane (30 mg·kg^−1 body weight), and kept on a homeothermic blanket to maintain normal body temperature. The abdomen was opened with a midline longitudinal incision, and three segments of rat intestine (duodenum, jejunum, and ileum) of approximately 10 cm each were carefully cannulated on two ends with plastic tubing. Initially, the perfusion solution free of drug (37 °C) was pumped by peristaltic pump (BT100-1F, Longer Pump Co., Baoding, China) through the cannulated segments at a flow rate of 1 mL/min for approximately 30 min in order to clean out any residual debris. Secondly, the perfusion solution containing a known concentration of substance (C1, C2, C3, C4, DC1, DC2, and MDQ-TS) was perfused at 37 °C through the intestinal lumen at a constant flow rate of 0.2 mL/min. The first 20 min of period corresponds to steady state, i.e., when the substance is in equilibrium with the intestinal membrane. After steady state, samples were collected from distal portion of duodenum, jejunum and ileum at 10 min intervals (0–10, 10–20, 20–30, 30–40, 40–50, 50–60 min) in pre-weighted vials. Samples were immediately frozen at −20 °C until analysis by validated UPLC. During the experiment, care was taken to avoid disturbance of the circulatory system and the exposed segment was covered with a piece of sterilized gauze to keep it warm and moist by frequent application of warm (37 °C) saline. The intestinum tenue maintained its viability and intact state without disrupting the blood supply throughout the experimental period. Finally, animals were sacrificed after depth anesthesia by intraperitoneal injection of urethane, according to protocols for euthanasia in experimental animals. After death, the intestinal segment was removed for measurements of length and inside diameter.
(§3) The net water flux in the in situ perfusion studies (water absorption and efflux in the intestinal segment) was determined by gravimetric method. The effective absorption rate constant (Ka) and effective apparent permeability (Papp) of compounds in the intestinal segments were calculated according to the following mathematical expression:(1) Ka=(1−CoutQout/CinQin)Q/V (2) Papp=−Qln(CoutQout/CinQin)/2πrl where Cin and Cout are the concentration of test drug in the effluent perfusate through the inlet and outlet tube (μg·mL^−1), respectively. Qin and Qout represent the inlet and outlet volume of effluent perfusate (mL), respectively. Q is the volume flow rate of perfusion (mL·h^−1). V is the volume of the intestinal segment concerned (mL). 2πrl is the area of the mass transfer surface of intestinal segment concerned (cm^2).

[2] = test system: rat duodenum; test: SPIP of MDQ-TS with or without EDTA (tight junction modulator); format: in vivo; details: MDQ-TS 2.5 mg/mL, EDTA 2.5 mmol·L^−1
Description: as §1, §2
as §3, with “(cm^2). […]” for “(cm^2).”

[3] = Apparent oil-water partition coefficient, shake-flask method; format: physicochemical; details: n-octanol / phosphate buffer pH 1.2-9.0, 37 °C; Kow = log Co/(Ct−Co)
Description: The equilibrium partitioning of C1, C2, C3, C4, DC1, and DC2 between organic lipid and water (Kow) was determined in our study by the traditional shake-flask method (SFM). Briefly, 0.5 mL of each saponin standard working solution (100 µg·mL^−1 in water-saturated n-octanol) was accurately measured into 5 mL centrifuge tubes, and spiked with 0.5 mL of different phosphate buffer solutions (pH: 1.2, 2.0, 3.6, 5.8, 6.8, 7.4, 7.8, and 9.0), respectively. After vortex-mixing for 45 min, the tubes were kept in a temperature-stable horizontal shaking bath (37 °C) for 24 h, and then centrifuged at 13,000 rpm for 10 min. Two hundred microliters of organic supernatant solution was measured, diluted with 800 µL of methanol, and mixed well. Ten microliters of the final solution was injected into the HPLC system (detailed experimental conditions and method validation results were not shown) for determination of the drug concentration in the n-octanol phase. The Kow values of the six saponins were calculated according to the following mathematical expression:(3) Kow=logCo/Ct−Co where Ct is the total concentration of the drug, and Co is the concentration of the drug in n-octanol phase.

[4] = test system: rat small intestine (duodenum, jejunum, ileum); test: In situ single-pass intestinal perfusion (SPIP), saponins administrated in monomer forms; format: in vivo; design: key to Papp / Ka: -: no absorption; details: for permeability classification: monomers, Papp > 0.12 × 10^−2 cm·min^−1 classified as completely absorbed (highly permeable)
Description: as §1, §2, §3

[5] = MDQ-TS form 1.25 mg·mL^−1, duodenum, n = 5
[6] = MDQ-TS form 1.25 mg·mL^−1, ileum, n = 5
[7] = MDQ-TS form 1.25 mg·mL^−1, jejunum, n = 5
[8] = MDQ-TS form 2.5 mg·mL^−1, duodenum, n = 5
[9] = MDQ-TS form 2.5 mg·mL^−1, ileum, n = 5
[10] = MDQ-TS form 2.5 mg·mL^−1, jejunum, n = 5
[11] = MDQ-TS form 5.0 mg·mL^−1, duodenum, n = 5
[12] = MDQ-TS form 5.0 mg·mL^−1, ileum, n = 5
[13] = MDQ-TS form 5.0 mg·mL^−1, jejunum, n = 5
[14] = monomer form, duodenum, concentration equivalent to 2.5 mg·mL^−1 MDQ-TS, n = 5
[15] = administrated in MDQ-TS form, summary bound (except DC2 in 1.25 mg·mL^−1 MDQ-TS group)

| Structure (SMILES) | Ka [1, 5] | Ka [1, 6] | Ka [1, 7] | Ka [1, 8] | Ka [1, 9] | Ka [1, 10] | Ka [1, 11] | Ka [1, 12] | Ka [1, 13] | Ka increase in comparison with non-EDTA added group [2] | Papp increase in comparison with non-EDTA added group [2] | apparent oil-water partition coefficient (Kow) [3] | Ka [4, 14] | Ka ([4]; monomer form, ileum, n = 5) | Ka ([4]; monomer form, jejunum, n = 5) | permeability classification [4] | Papp ([4]; monomer form, ileum, n = 5) | Papp ([4]; monomer form, jejunum, n = 5) | Papp [1, 5] | Papp [1, 6] | other results |
| --- | --- | --- | --- | --- | --- | --- | --- | --- | --- | --- | --- | --- | --- | --- | --- | --- | --- | --- | --- | --- | --- |
| C[C@@H]1CC[C@]2(C(=O)O)CC[C@]3(C)C(=CC[C@@H]4[C@@]5(C)CC[C@H](O)[C@@](C)(C(=O)O)[C@@H]5CC[C@]43C)[C@@H]2[C@]1(C)O [C1, ilexgenin A] | 1.86 ± 0.73 ×10^−2 min^−1 | 0.89 ± 0.08 ×10^−2 min^−1 | 0.95 ± 0.28 ×10^−2 min^−1 | 1.70 ± 0.31 ×10^−2 min^−1 | 2.90 ± 0.37 ×10^−2 min^−1 | 2.23 ± 0.39 ×10^−2 min^−1 | 1.68 ± 0.74 ×10^−2 min^−1 | 1.48 ± 0.76 ×10^−2 min^−1 | 2.30 ± 1.24 ×10^−2 min^−1 | ~1.6 fold | about 1.7 fold | −1 to 2 | 1.77 ± 0.17 ×10^−2 min^−1 | 1.50 ± 0.25 ×10^−2 min^−1 | 1.65 ± 0.19 ×10^−2 min^−1 | highly permeable |  |  |  |  |  |
| CC1CCC2(C(=O)OC3OC(CO)C(O)C(O)C3O)CCC3(C)C(=CCC4C5(C)CCC(O)C(C)(C(=O)O)C5CCC43C)C2C1(C)O (stereo not drawn) [C2, ilexsaponin A1] | 1.10 ± 0.40 ×10^−2 min^−1 | 1.61 ± 0.37 ×10^−2 min^−1 | 0.74 ± 0.25 ×10^−2 min^−1 | 0.85 ± 0.20 ×10^−2 min^−1 | 1.89 ± 0.35 ×10^−2 min^−1 | 0.68 ± 0.18 ×10^−2 min^−1 | 1.13 ± 0.62 ×10^−2 min^−1 | 0.85 ± 0.27 ×10^−2 min^−1 | 1.21 ± 0.51 ×10^−2 min^−1 | ~1.6 fold | ~1.2 fold | −1 to 2 | 1.40 ± 0.29 ×10^−2 min^−1 | 1.62 ± 0.32 ×10^−2 min^−1 | 1.72 ± 0.16 ×10^−2 min^−1 | highly permeable | 0.25 ± 0.03 ×10^−2 cm·min^−1 | 0.25 ± 0.01 ×10^−2 cm·min^−1 |  |  |  |
| C[C@H]1CC[C@]2(C(=O)O)CC[C@]3(C)C(=CC[C@@H]4[C@@]5(C)CC[C@H](O[C@@H]6OC[C@@H](O)[C@H](O)[C@H]6O[C@@H]6O[C@H](CO)[C@@H](O)[C@H](O)[C@H]6O)C(C)(C)[C@@H]5CC[C@]43C)[C@@H]2[C@]1(C)O [C3, ilexsaponin B1] | 1.16 ± 0.26 ×10^−2 min^−1 | 1.04 ± 0.11 ×10^−2 min^−1 | 0.94 ± 0.12 ×10^−2 min^−1 | 2.19 ± 0.52 ×10^−2 min^−1 | 3.77 ± 0.41 ×10^−2 min^−1 | 3.82 ± 0.49 ×10^−2 min^−1 | 1.80 ± 0.97 ×10^−2 min^−1 | 1.66 ± 0.95 ×10^−2 min^−1 | 2.48 ± 0.86 ×10^−2 min^−1 | ~1.5 fold | ~1.9 fold | −1 to 2 | 1.49 ± 0.36 ×10^−2 min^−1 | 1.38 ± 0.06 ×10^−2 min^−1 | 1.56 ± 0.30 ×10^−2 min^−1 | highly permeable | 0.21 ± 0.06 ×10^−2 cm·min^−1 | 0.23 ×10^−2 cm·min^−1 and 0.23 ± 0.05 ×10^−2 cm·min^−1 | 0.24 ± 0.10 ×10^−2 cm·min^−1 | 0.18 ± 0.01 ×10^−2 cm·min^−1 | Papp [1, 7]: 0.17 ± 0.04 ×10^−2 cm·min^−1; Papp [1, 8]: 0.36 ± 0.06 ×10^−2 cm·min^−1; Papp [1, 9]: 0.42 ± 0.03 ×10^−2 cm·min^−1; Papp [1, 10]: 0.40 ± 0.13 ×10^−2 cm·min^−1; Papp [1, 11]: 0.39 ± 0.24 ×10^−2 cm·min^−1; Papp [1, 12]: 0.29 ± 0.15 ×10^−2 cm·min^−1; Papp [1, 13]: 0.40 ± 0.24 ×10^−2 cm·min^−1; Papp [1, 15]: > 0.0012 cm/min; Papp ([4]; administered in monomer forms, summary bound): > 0.0012 cm/min; Papp [4, 14]: 0.23 ×10^−2 cm·min^−1 and 0.23 ± 0.02 ×10^−2 cm·min^−1 |
| C[C@@H]1O[C@@H](O[C@H]2[C@H](O[C@H]3[C@H](O[C@H]4CC[C@]5(C)[C@H]6CC=C7[C@H]8[C@](C(=O)O)(CC[C@H](C)[C@@]8(C)O)CC[C@@]7(C)[C@]6(C)CC[C@H]5C4(C)C)OC[C@@H](O)[C@@H]3O)O[C@H](CO)[C@@H](O)[C@@H]2O)[C@H](O)[C@H](O)[C@H]1O [C4, ilexsaponin B2] | 1.04 ± 0.31 ×10^−2 min^−1 | 0.83 ± 0.28 ×10^−2 min^−1 | 0.84 ± 0.47 ×10^−2 min^−1 | 1.94 ± 0.50 ×10^−2 min^−1 | 2.53 ± 0.29 ×10^−2 min^−1 | 3.19 ± 0.56 ×10^−2 min^−1 | 1.87 ± 0.86 ×10^−2 min^−1 | 1.52 ± 0.92 ×10^−2 min^−1 | 1.92 ± 0.61 ×10^−2 min^−1 | ~1.5 fold | ~1.5 fold | −1 to 2 |  |  |  |  |  |  | 0.20 ± 0.09 ×10^−2 cm·min^−1 | 0.14 ± 0.04 ×10^−2 cm·min^−1 | Papp [1, 7]: 0.14 ± 0.05 ×10^−2 cm·min^−1; Papp [1, 8]: 0.42 ± 0.05 ×10^−2 cm·min^−1; Papp [1, 9]: 0.40 ± 0.03 ×10^−2 cm·min^−1; Papp [1, 10]: 0.49 ± 0.03 ×10^−2 cm·min^−1; Papp [1, 11]: 0.40 ± 0.22 ×10^−2 cm·min^−1; Papp [1, 12]: 0.26 ± 0.15 ×10^−2 cm·min^−1; Papp [1, 13]: 0.45 ± 0.18 ×10^−2 cm·min^−1; Papp [1, 15]: > 0.0012 cm/min; Ka ([4]; monomer form, duodenum, symbol): -; Papp ([4]; monomer form, duodenum, symbol): -; Ka ([4]; monomer form, ileum, symbol): -; Papp ([4]; monomer form, ileum, symbol): -; Ka ([4]; monomer form, jejunum, symbol): -; Papp ([4]; monomer form, jejunum, symbol): -; intestinal absorption of monomers ([4]; monomer form, small intestine, result in words): could not be absorbed by small intestine at all; also recorded: no absorption; also recorded: could not be absorbed by the gastrointestinal tract at all |
